Tests used:
Format in all cases: in vivo
Sphaerotheca fuliginea [1] = experiment: Control test to powdery mildew of cucumber by vapor (filter paper disks)
Experimental: (1) The first leaves of young cucumber (Cultivar: Matsukaze) planted in pot of 9 cm in diameter were inoculated with spore suspension of Sphaerotheca fuliginea. After the plants were kept in a greenhouse for 2 days, thin cover plates, 15 mm in diameter, were put on the first leaves. Filter paper disks soaked with 80 μl of test solution at a concentration of 31.3, 7.8, 2.0 or 0.5 ppm were put on the plates for 3 days. Disease degrees were observed 14 days after the inoculation.
It is evaluated as + when an inhibition zone was observed around the plate, as ± when the inhibition zone has nearly the same diameter (8 mm) as that of plate or as - when there is no inhibition zone.
(§1) (1) Test methods and evaluation are the same as those in Tests 2, 4 and 6.

Sphaerotheca fuliginea [2] = experiment: Control test to powdery mildew of cucumber (foliar and soil treatment); conditions: index 0-10
[3] = tested on: powdery mildew of cucumber and Borytis rot (gray mold) of cucumber; experiment: Comparative test of cis- and trans-isomers; conditions: cis isomer vs trans isomer, about
Source text: Each cis- and trans-isomers of 1-(4-chlorophenyl)-2-(1,2,4-triazol-1-yl)cyclohexanol (Compound 22 and the trans-isomer)) and 1-(4-fluorophenyl)-2-(1,2,4-triazol-1-yl)cyclohexanol (Compound 28 and the trans-isomer) are subjected to control test to powdery mildew of cucumber and to Borytis rot (gray mold) of cucumber.
as §1

Rhizoctonia solani = experiment: Control test to damping-off of cucumber (Rhizoctonia solani); conditions: 31.3 ppm, soil drench, 14 days
Experimental: (1) The fungus causing damping-off of cucumber seedlings, Rhizoctonia solani or Fusarium oxysporum was cultured on a wheat bran medium at 28° C. for 5 days, which was mixed with sterilized soil and cultured for 2 days to prepare the inoculum. Sterilized soil (150 g) was put into a pot of 9 cm in diameter. The surface of the spot was covered with the above inoculum. […] Twenty cucumber seeds (Cultivar: Matsukaze) were sown 2 days after. The pots were kept at 30°±2° C. for 14 days. The infection was observed 14 days after and disease degree and percent disease degree were obtained by setting an evaluation index for each disease sympton.
(2) Evaluation [formula] wherein a: number of seeds without germination b: number of seedlings showing damping-off c: number of wilted seedlings d: number of seedlings being a little brownish in cotyledons or at the bottom of the stem e: number of uninfected seedlings [formula] wherein a: number of seeds without germination or seedlings with damping-off b: number of wilted seedlings c: number of seedlings being a little brownish in cotyledons or at the bottom of the stem d: number of uninfected seedlings [formula]

Botrytis cinerea = experiment: Control test of Botrytis rot (gray mold) of cucumber
Sclerotinia sclerotiorum = experiment: Control test to Sclerotinia rot of cucumber
Source text: (1) This test was practised in the same manner as in the above test, control test of Botrytis rot (gray mold) of cucumber, except for using the mycelium of Sclerotinia sclerotiorum as inoculm. The same as in test 2.

## O[C@@]1(c2ccc(F)cc2)CCCC[C@H]1n1cncn1 (relative stereo) [Compound 28, 1-(4-fluorophenyl)-2-(1,2,4-triazol-1-yl)cyclohexanol]
Sphaerotheca fuliginea [1]; Table 9, 2.0 ppm
  Powdery mildew, Vapor Effect: -
Sphaerotheca fuliginea [1]; Table 9, 7.8 ppm
  Powdery mildew, Vapor Effect: ±
Sphaerotheca fuliginea [1]; Table 9, 31.3 ppm
  Powdery mildew, Vapor Effect: +
Sphaerotheca fuliginea [2]; Table 9, 0.03 ppm
  Powdery mildew, Foliar Treatment, Curative Effect: 0
  Powdery mildew, Foliar Treatment, Protective Effect: 0
Sphaerotheca fuliginea [2]; Table 9, 0.12 ppm
  Powdery mildew, Foliar Treatment, Curative Effect: 7 (Disease sign is observed on the leaf in about 20%.)
  Powdery mildew, Foliar Treatment, Protective Effect: 0
Sphaerotheca fuliginea [2]; Table 9, 0.5 ppm
  Powdery mildew, Foliar Treatment, Curative Effect: 10
  Powdery mildew, Foliar Treatment, Protective Effect: 5 (Disease sign is observed on the leaf in about 30%.)
  Powdery mildew, Soil Treatment, Protective Effect: 0
Sphaerotheca fuliginea [2]; Table 9, 2.0 ppm
  Powdery mildew, Foliar Treatment, Curative Effect: 10
  Powdery mildew, Foliar Treatment, Protective Effect: 10
  Powdery mildew, Soil Treatment, Protective Effect: 9
Sphaerotheca fuliginea [2]; Table 9, 7.8 ppm
  Powdery mildew, Soil Treatment, Protective Effect: 10
Sphaerotheca fuliginea [2]; Table 9, 31.3 ppm
  Powdery mildew, Soil Treatment, Protective Effect: 10
Sphaerotheca fuliginea [2]; second Table 4, 0.5 ppm
  Foliar Treatment, Curative Effect: 5 (Disease sign is observed on the leaf in about 30%.)
  Foliar Treatment, Protective Effect: 0
  Soil Treatment, Protective Effect: 0
Sphaerotheca fuliginea [2]; second Table 4, 2.0 ppm
  Foliar Treatment, Curative Effect: 9
  Foliar Treatment, Protective Effect: 5 (Disease sign is observed on the leaf in about 30%.)
  Soil Treatment, Protective Effect: 5 (Disease sign is observed on the leaf in about 30%.)
Sphaerotheca fuliginea [2]; second Table 4, 7.8 ppm
  Foliar Treatment, Curative Effect: 10
  Foliar Treatment, Protective Effect: 10
  Soil Treatment, Protective Effect: 10
Sphaerotheca fuliginea [2]; second Table 4, 31.3 ppm
  Foliar Treatment, Curative Effect: 10
  Foliar Treatment, Protective Effect: 10
  Soil Treatment, Protective Effect: 10
[3]
  times more effective than the corresponding trans isomer: 4-16 times
Rhizoctonia solani
  Disease Degree: 8
  Percent Disease Control: 92%
Botrytis cinerea; Table 2, 31.3 ppm
  Percent Disease Control, Curative Spraying: 48%
  Percent Disease Control, Protective Spraying: 40%
Botrytis cinerea; Table 2, 125 ppm
  Percent Disease Control, Curative Spraying: 79%
  Percent Disease Control, Protective Spraying: 100%
Botrytis cinerea; Table 9, 7.8 ppm
  Gray Mold, Percent Disease Control, Curative Spraying: 30%
  Gray Mold, Percent Disease Control, Protective Spraying: 17%
Botrytis cinerea; Table 9, 31.3 ppm
  Gray Mold, Percent Disease Control, Curative Spraying: 92%
  Gray Mold, Percent Disease Control, Protective Spraying: 70%
Botrytis cinerea; Table 9, 125 ppm
  Gray Mold, Percent Disease Control, Curative Spraying: 98%
  Gray Mold, Percent Disease Control, Protective Spraying: 80%
Sclerotinia sclerotiorum; 31.3 ppm
  Percent Disease Control, Curative Spraying: 77%
  Percent Disease Control, Protective Spraying: 56%
Sclerotinia sclerotiorum; 125 ppm
  Percent Disease Control, Curative Spraying: 97%
  Percent Disease Control, Protective Spraying: 80%

From patent US5091539A, “Azolyl cycloalkanol derivatives and agricultural fungicides” (Shionogi & Co., Ltd., priority 1984, dated 1992)
